The source of these data is US11021468B2, “TGF-ß inhibitors” (Rigel Pharmaceuticals, Inc., priority 2015, dated 2021).

Assay [1] concerns GDF8. In words: AlphaScreen SureFire SMAD3 (p-Ser423/425) assay, GDF8-stimulated (GDF pSMAD (MPC11)). The settings on record: p-SMAD-3 (Ser423/425). The format is cell-based. An excerpt: (§1) Example 2: AlphaScreen® SureFire® SMAD3 (p-Ser423/425) Assay
(§2) The p-SMAD-3 (Ser423/425) SureFire® assay has been designed to measure the phosphorylation of endogenous cellular p-SMAD-3 (Ser423/425) in cell lysates and is a system for the screening of both modulators of receptor activation (e.g. agonists and antagonists) as well as agents acting intracellularly, such as small molecule inhibitors of upstream events. The assay will measure p-SMAD-3 (Ser423/425) activation by either cloned or endogenous receptors, and can be applied to primary cells.
(§3) P-SMAD-3 (Ser423/425) SureFire® Assay Protocols
(§4) 96-well Assay Protocol for 293FT and RMS13 adherent cells can be carried out manually or in high throughput with liquid handling robots.
(§5) The cells (80 μL of cells for 96 well plates) were plated in collagen coated tissue culture plates in RPMI or FreeStyle medium (Invitrogen) and incubated overnight. For manual analysis, 6 plates for GDF8, 6 plates for TGFβ, and optionally 6 plates for Alk5ca(ALK5 constitutively active) were used.
(§6) The compound dilution plates were prepared as follows: 12 μL of DMSO was transferred into first column of 96-well plate, and 16 μL of DMSO was transferred into columns 2-12 of the 96-well plate. 12 μL of compound solution was transferred into first column of the DMSO-containing 96-well plate. Three-fold dilution was performed up to column 10 of the DMSO-containing 96-well plate.
(§7) The plate containing cells were treated with compounds for about 10 minutes, and then ligand was added. GDF8 or TGFb was added to plates to stimulate. 293FL cells were stimulated for 90 minutes at 37° C.; and RMS13 cells were stimulated for 60 minutes at 37° C. The medium was then removed from the cells, and 1× Lysis Buffer (about 25 μL) was added and the plate was gently agitated on plate shaker for 5-10 minutes.
(§8) The lysate (5 μL) was then placed into 384-well shallow plates avoiding the generation of bubbles. To this, the Reaction Buffer+Activation Buffer+AlphaScreen® Acceptor beads mixture (5 μL) was added. The plate was sealed with adhesive cover and shielded from light (e.g., with metal foil), and agitated gently on plate shaker for 2 hours at room temperature.
(§9) Dilution buffer+AlphaScreen® Donor beads (2 μL) was then added, and the plate was intubated on the plate shaker for an additional 1½ hours. After completion, the plate was read on Synergy-4 or Enspire plate reader, using AlphaScreen® pSMAD3® settings.
(§10) Representative results for inhibition of GDF8 (data=GDF pSMAD (MPC11) (μM)) and TGF-β (data=TGF-β pSMAD (MPC-11) (μM)) signaling are shown in Table 1: […]
On the technique in general: In Alpha technology, singlet oxygen from a donor bead excites a nearby acceptor bead.

For assay [2], the system named is TGF-β. In words: AlphaScreen SureFire SMAD3 (p-Ser423/425) assay, TGF-β-stimulated (TGF-β pSMAD (MPC-11)). The format is cell-based. The settings on record: p-SMAD-3 (Ser423/425).
Text: as §1, §2, §3, §4, §5, §6, §7, §8, §9, §10

The mark [3] stands for this setting: Mus musculus, MPC-11, inhibition of GDF8 signaling.
The mark [4] stands for this setting: Mus musculus, MPC-11, inhibition of TGF-β signaling.

Turning to `Cc1ccc(F)c(-c2nccc(Nc3ccc4[nH]ncc4c3)n2)c1` [Compound 48, N-(2-(2-Fluoro-5-methylphenyl)pyrimidin-4-yl)-1H-indazol-5-amine], the 50% inhibitory concentration (IC50) (usually the concentration at which inhibition is half-maximal) in assay [1] (setting [3]) was determined as 192 nM; in assay [2] (setting [4]), 595 nM.
`Cc1cccc(-c2nc(Nc3cnc4[nH]ncc4c3)c3ccccc3n2)n1` [Compound 2, 2-(6-Methylpyridin-2-yl)-N-(1H-pyrazolo[3,4-b]pyridin-5-yl)quinazolin-4-amine]: the figures for the IC50 in assay [1] (setting [3]) and in assay [2] (setting [4]) were 144 nM and 318 nM, respectively.
As for `Cc1cc(-c2ncc(C)c(Nc3cc4cn[nH]c4cc3C)n2)ccc1F` [Compound 51, N-(2-(4-Fluoro-3-methylphenyl)-5-methylpyrimidin-4-yl)-6-methyl-1H-indazol-5-amine], the IC50 in assay [1] (inhibition of GDF8 signaling) came to 777 nM; in assay [2] (inhibition of TGF-β signaling), 829 nM.
On to `COc1cc2nccc(Nc3ccnc(-c4ccc(F)cc4C)n3)c2cc1OC` [Compound 47, N-(2-(4-Fluoro-2-methylphenyl)pyrimidin-4-yl)-6,7-dimethoxyquinolin-4-amine], for which the half-inhibitory concentration (IC50) in assay [1] (setting [3]) is 34.4 nM; in assay [2] (setting [4]) it was 44.4 nM.
As for `Cc1ccc(C)c(-c2nccc(Nc3ccc4[nH]ncc4c3)n2)c1` [Compound 30, N-(2-(2,5-Dimethylphenyl)pyrimidin-4-yl)-1H-indazol-5-amine], the half-maximal inhibitory concentration (IC50) is 193 nM in assay [1] (setting [3]) and 842 nM in assay [2] (setting [4]).
`Cc1ccccc1-c1nccc(Nc2ccc3[nH]ncc3c2)n1` [Compound 21, N-(2-(2-Methylphenyl)pyrimidin-4-yl)-1H-indazol-5-amine]: the IC50 in assay [1] (setting [3]) is 201 nM; in assay [2] (setting [4]), 1230 nM.
As for `Cc1ccccc1-c1ncc(F)c(Nc2ccc3[nH]ncc3c2)n1` [Compound 34, N-(5-Fluoro-2-(methylphenyl)pyrimidin-4-yl)-1H-indazol-5-amine], the IC50 in assay [1] (setting [3]) was found to be 427 nM; in assay [2] (setting [4]) it was 2340 nM.
As to `Cc1cccc(-c2nc(Nc3ccc4[nH]ncc4c3)c3cc[nH]c3n2)c1` [Compound 9, N-(1H-Indazol-5-yl)-2-(3-methylphenyl)-7H-pyrrolo[2,3-d]pyrimidin-4-amine], the half-maximal inhibitory concentration (IC50) is 336 nM in assay [1] (setting [3]) and 1460 nM in assay [2] (setting [4]).
Consider `COc1ccc(-c2nccc(Nc3ccc4[nH]ncc4c3)n2)c(C)c1` [Compound 46, N-(2-(4-Methoxy-2-methylphenyl)pyrimidin-4-yl)-1H-indazol-5-amine], for which the IC50 amounted to 11 nM in assay [1] (setting [3]) and 65.9 nM in assay [2] (setting [4]).
The matching figures for `Cc1cc(-c2nccc(Nc3ccc4[nH]ncc4c3)n2)ccc1F` [Compound 43, N-(2-(4-Fluoro-3-methylphenyl)pyrimidin-4-yl)-1H-indazol-5-amine]: 41 nM and 185 nM.
For the molecule `Cc1ccc(F)cc1-c1nccc(Nc2ccc3[nH]ncc3c2)n1` [Compound 26, N-(2-(5-fluoro-2-methylphenyl)pyrimidin-4-yl)-1H-indazol-5-amine], the IC50 was 126 nM in assay [1] (setting [3]) and 1000 nM in assay [2] (setting [4]).
With `Cc1cc(-c2ncc(C)c(Nc3cc4cn[nH]c4cc3C)n2)ccc1F` [Compound 56, N-(2-(4-Fluoro-3-methylphenyl)-5-methylpyrimidin-4-yl)-6-methyl-1H-indazol-5-amine], the IC50 in assay [1] (inhibition of GDF8 signaling) came out at 184 nM; in assay [2] (inhibition of TGF-β signaling), 281 nM.
As for `COc1cc2[nH]ncc2cc1Nc1nc(-c2ccc(F)c(F)c2)ncc1C` [Compound 63, N-(2-(3,4-Difluorophenyl)-5-methylpyrimidin-4-yl)-6-methoxy-1H-indazol-5-amine], the IC50 was determined as 312 nM in assay [1] (setting [3]) and 395 nM in assay [2] (setting [4]).
Take `Nc1ccccc1-c1nccc(Nc2ccc3[nH]ncc3c2)n1` [Compound 44, N-(2-(2-Aminophenyl)pyrimidin-4-yl)-1H-indazol-5-amine]: the IC50 in assay [1] (setting [3]) turned out to be 209 nM; in assay [2] (setting [4]) it was 1840 nM.
`Cc1cc2[nH]ncc2cc1Nc1nc(-c2ccc(F)c(F)c2)ncc1C` [Compound 54, N-(2-(3,4-Difluorophenyl)-5-methylpyrimidin-4-yl)-6-methyl-1H-indazol-5-amine]: the figures for the IC50 in assay [1] (setting [3]) and in assay [2] (setting [4]) were 492 nM and 662 nM, respectively.
`COc1cc2[nH]ncc2cc1Nc1nc(-c2ccccc2F)ncc1C` [Compound 62, N-(2-(2-Fluorophenyl)-5-methylpyrimidin-4-yl)-6-methoxy-1H-indazol-5-amine]: the half-maximal inhibitory concentration (IC50) was found to be 335 nM in assay [1] (setting [3]) and 381 nM in assay [2] (setting [4]).
Regarding `Cc1cnc(-c2ccc(F)c(F)c2)nc1Nc1cnc2[nH]ncc2c1` [Compound 15, N-(2-(3,4-Difluorophenyl)-5-methylpyrimidin-4-yl)-1H-pyrazolo[3,4-b]pyridin-5-amine], the figures for the 50% inhibitory concentration (IC50) in assay [1] (setting [3]) and in assay [2] (setting [4]) were 685 nM and 876 nM, respectively.
On to `Fc1ccc(-c2nc(Nc3ccc4[nH]ncc4c3)c3cc[nH]c3n2)cc1F` [Compound 6, 2-(3,4-Difluorophenyl)-N-(1H-indazol-5-yl)-7H-pyrrolo[2,3-d]pyrimidin-4-amine], for which the IC50 amounted to 264 nM in assay [1] (setting [3]) and 1680 nM in assay [2] (setting [4]).
Consider `Cc1ccc(C)c(-c2ncc(C)c(Nc3cc4cn[nH]c4cc3C)n2)c1` [Compound 55, N-(2-(2,5-Dimethylphenyl)-5-methylpyrimidin-4-yl)-6-methyl-1H-indazol-5-amine], for which the 50% inhibitory concentration (IC50) in assay [1] (setting [3]) was found to be 260 nM; in assay [2] (setting [4]) it was 629 nM.
On to `Fc1ccc(-c2nccc(Nc3ccc4[nH]ncc4c3)n2)cc1F` [Compound 22, N-(2-(3,4-Difluorophenyl)pyrimidin-4-yl)-1H-indazol-5-amine], for which the figures for the IC50 in assay [1] (inhibition of GDF8 signaling) and in assay [2] (inhibition of TGF-β signaling) were 32.1 nM and 112 nM, respectively.
Take `c1ccc(-c2nccc(Nc3ccc4[nH]ncc4c3)n2)cc1` [Compound 20, N-(2-Phenylpyrimidin-4-yl)-1H-indazol-5-amine]: the figures for the IC50 in assay [1] (setting [3]) and in assay [2] (setting [4]) were 358 nM and 1740 nM, respectively.
For the molecule `Cc1cnc(-c2ccc(F)c(F)c2)nc1Nc1ccc2[nH]ncc2c1` [Compound 40, N-(2-(3,4-Difluorophenyl)-5-methylpyrimidin-4-yl)-1H-indazol-5-amine], the half-inhibitory concentration (IC50) was 58.6 nM in assay [1] (setting [3]) and 174 nM in assay [2] (setting [4]).
Take `Nc1cccc(-c2nccc(Nc3ccc4[nH]ncc4c3)n2)c1` [Compound 31, N-(2-(3-Aminophenyl)pyrimidin-4-yl)-1H-indazol-5-amine]: the values for the half-inhibitory concentration (IC50) in assay [1] (setting [3]) and in assay [2] (setting [4]) were 463 nM and 2710 nM, respectively.
In the same order, the values of `Cc1cc(F)ccc1-c1ncc(F)c(Nc2cnc3[nH]ncc3c2)n1` [Compound 12, N-(5-Fluoro-2-(4-fluoro-2-methylphenyl)pyrimidin-4-yl)-1H-pyrazolo[3,4-b]pyridin-5-amine] are 481 nM and 1590 nM.
On to `Cc1cc2[nH]ncc2cc1Nc1nc(-c2ccc(F)cc2)ncc1C` [Compound 53, N-(2-(4-Fluorophenyl)-5-methylpyrimidin-4-yl)-6-methyl-1H-indazol-5-amine], for which the IC50 in assay [1] (setting [3]) was determined as 540 nM; in assay [2] (setting [4]), 543 nM.
For `Fc1ccc(-c2nccc(Nc3cnc4[nH]ncc4c3)n2)cc1F` [Compound 3, N-(2-(3,4-Difluorophenyl)pyrimidin-4-yl)-1H-pyrazolo[3,4-b]pyridin-5-amine], the 50% inhibitory concentration (IC50) came to 382 nM in assay [1] (setting [3]) and 1530 nM in assay [2] (setting [4]).
In the case of `Fc1ccc(-c2nccc(Nc3ccc4[nH]ncc4c3)n2)cc1F` [Compound 25, N-(2-(3,4-Difluorophenyl)pyrimidin-4-yl)-1H-indazol-5-amine], the IC50 in assay [1] (inhibition of GDF8 signaling) was 91.1 nM; in assay [2] (inhibition of TGF-β signaling), 326 nM.
